According to PubChem BioAssay (NCI):
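Cultured in 96-well plates, cells were exposed to test compound for 48 hours across five concentrations. Here, GI50 denotes the concentration required for 50% inhibition of growth. TGI marks complete inhibition of growth.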

Experiments:
Assay in all cases: DTP human tumour cell line panel, 48 h
[1] = test system: A498 renal
[2] = test system: HCT-15 colon
[3] = test system: HS 578T breast
[4] = test system: MDA-MB-231 breast
[5] = test system: RPMI-8226 leukemia
[6] = test system: SF-295 CNS
[7] = test system: SF-539 CNS
[8] = test system: SNB-75 CNS
[9] = test system: UO-31 renal
[10] = test system: UACC-62 melanoma

SMILES | GI50 [1] | TGI [1] | GI50 [2] | TGI [2] | GI50 [3] | TGI [3] | GI50 [4] | TGI [4] | GI50 [5] | TGI [5] | GI50 [6] | TGI [6] | GI50 [7] | TGI [7] | GI50 [8] | TGI [8] | GI50 [9] | TGI [9] | GI50 [10] | TGI [10]
O=C(CN1CCN(c2ccc(Cl)cc2)CC1)N1CCN(c2nnc(-c3ccc(Cl)cc3)c(-c3ccc(Cl)cc3)n2)CC1 | 43.1 µM | > 100 µM | > 100 µM | > 100 µM | 24 µM | > 100 µM | 50.8 µM | > 100 µM | > 100 µM | > 100 µM | 20.9 µM | > 100 µM | 19.6 µM | 69.9 µM | 15.1 µM | 35.5 µM | 20.3 µM | > 100 µM | – | –
O=C(Nc1cccc(Oc2nnc(Cl)c3ccccc23)c1)Nc1ccc(Cl)c(C(F)(F)F)c1 | 0.275 µM | 1.7 µM | 0.765 µM | 3.53 µM | 1.72 µM | 8.18 µM | 0.358 µM | 2.44 µM | 0.336 µM | 1.51 µM | 0.657 µM | 3.7 µM | 1.38 µM | 4.01 µM | 1.61 µM | 5.63 µM | 0.176 µM | 4.19 µM | – | –
C=CC(C=O)C1(O)CCOC(=O)/C1=C\N (centres undefined) | – | – | > 100 µM | > 100 µM | 7.57 µM | > 100 µM | > 100 µM | > 100 µM | > 100 µM | > 100 µM | > 100 µM | > 100 µM | – | – | – | – | > 100 µM | > 100 µM | > 100 µM | > 100 µM
O=c1cccccc1NCCCCCCNc1cccccc1=O | – | > 100 µM | – | > 100 µM | – | – | – | – | – | > 100 µM | – | > 100 µM | – | – | – | > 100 µM | – | > 100 µM | – | > 100 µM
CC(=O)c1c(C)n(C)c2c1nnc1ccccc12 | – | > 100 µM | – | > 100 µM | – | > 100 µM | – | > 100 µM | – | > 100 µM | – | > 100 µM | – | > 100 µM | – | – | – | 8.11 µM | – | > 100 µM
Cc1cccc(C(=O)/C=C/SC(=NC#N)SCc2ccccc2)c1 | – | – | 39.1 µM | > 100 µM | 27.9 µM | 94.8 µM | 20 µM | 41.5 µM | 4.06 µM | > 100 µM | 21.2 µM | 88.6 µM | 6.67 µM | 31.7 µM | – | – | 30.9 µM | 89 µM | 19.4 µM | 40.7 µM
O=C(c1ccccc1)c1ccc(OCCOc2ccc(Nc3ccccc3)cc2)cc1 | – | 79 µM | – | > 100 µM | – | – | – | – | – | – | – | 93.9 µM | – | > 100 µM | – | 33.4 µM | – | > 100 µM | – | > 100 µM
CC/C(=C(/CC)c1ccc([O-])cc1)c1ccc([O-])cc1.CC/C(=C(\CC)c1ccc([O-])cc1)c1ccc([O-])cc1.O=C([CH-]C(=O)c1ccccc1)c1ccccc1.O=C([CH-]C(=O)c1ccccc1)c1ccccc1.O=C([CH-]C(=O)c1ccccc1)c1ccccc1.O=C([CH-]C(=O)c1ccccc1)c1ccccc1.[Ti+4].[Ti+4] | – | – | 39.4 µM | > 100 µM | – | – | – | – | 71.4 µM | > 100 µM | 19.9 µM | 42.6 µM | 20 µM | 40.8 µM | – | – | 35 µM | 72.2 µM | 18.9 µM | 52.4 µM
CO/N=C(\C)c1cccc(Nc2cc(-c3ccccc3)nc3c(O)cccc23)c1 | – | – | 3.38 µM | 16.9 µM | 5.31 µM | 38.8 µM | 2.74 µM | 9.4 µM | 2.91 µM | 8.59 µM | 2.17 µM | 5.55 µM | 10.8 µM | 39.9 µM | 20.5 µM | 96.2 µM | 4.58 µM | 60.5 µM | 6.01 µM | 29.2 µM
CN(C)CCNC(=O)Cn1cc([N+](=O)[O-])c(=O)c2ccccc21 | – | > 100 µM | – | > 100 µM | – | > 100 µM | – | > 100 µM | – | – | – | > 100 µM | – | > 100 µM | – | > 100 µM | – | > 100 µM | – | > 100 µM
CCOC(=O)C1=C(O)CSC1=Nc1ccccc1 | – | – | – | > 100 µM | – | – | – | – | – | > 100 µM | – | > 100 µM | – | > 100 µM | – | > 100 µM | – | > 100 µM | – | > 100 µM
CC(=O)c1cccc(NC(=O)C(=O)C(C2OC(=O)c3ccccc32)[N+](=O)[O-])c1 (centres undefined) | – | > 100 µM | – | > 100 µM | – | – | – | – | – | > 100 µM | – | > 100 µM | – | > 100 µM | – | > 100 µM | – | > 100 µM | – | > 100 µM
COc1ccc(C(=O)C(C(=O)C(=O)Nc2ccc(Cl)c(Cl)c2)c2ccc(OC)cc2)cc1 (centres undefined) | – | > 100 µM | – | > 100 µM | – | – | – | – | – | > 100 µM | – | > 100 µM | – | > 100 µM | – | > 100 µM | – | > 100 µM | – | > 100 µM
CN[C@@H](C)[C@@H](N)c1ccccc1 | – | > 100 µM | – | > 100 µM | – | – | – | – | – | > 100 µM | – | > 100 µM | – | > 100 µM | – | > 100 µM | – | > 100 µM | – | > 100 µM
NNC(=S)N/N=C(/C(=O)Nc1cc(Cl)ccc1Cl)C1C(=O)Nc2ccccc2S1=O (centres undefined) | – | > 100 µM | – | > 100 µM | – | – | – | – | – | – | – | > 100 µM | – | > 100 µM | – | > 100 µM | – | > 100 µM | – | > 100 µM
O=C1N(c2ccccc2)C(=O)C2(SC=NN2Cc2ccccc2)N1c1ccccc1 (centres undefined) | – | > 100 µM | – | – | – | – | – | – | – | – | – | > 100 µM | – | > 100 µM | – | > 100 µM | – | > 100 µM | – | > 100 µM
C1C[S][Ge]2([S]CCO1)[S]CCOCC[S]2 | > 100 µM | > 100 µM | > 100 µM | > 100 µM | – | – | – | – | > 100 µM | > 100 µM | – | – | > 100 µM | > 100 µM | 2.51 µM | 48.4 µM | > 100 µM | > 100 µM | > 100 µM | > 100 µM
O=C(CSC(c1ccccc1)c1ccccc1)N/N=C/c1cccc(Cl)c1 | 14.9 µM | 29 µM | 19.6 µM | 38.6 µM | 15.7 µM | 38.2 µM | 14.4 µM | 28.6 µM | 19 µM | 41.7 µM | 22.9 µM | 44.8 µM | 18.8 µM | 33.3 µM | – | – | 11.7 µM | 23.9 µM | 16 µM | 30.3 µM
